Measurements as given in paper PMC9184688, “α-Glucosidase inhibitive diarylheptanoids from Ottelia acuminata var. acuminata, a traditional vegetable of Bai Nationality in Yunnan” (Natural Products and Bioprospecting, 2022).
Marks after values point to notes of the source that are not given here.

What was measured:
PTP1B = target: T1, PTP1B (Homo sapiens, UniProt P18031); experiment: PTP1B inhibitory assay (phosphate-based detection reagent, absorbance at 620 nm); assay type: biochemical; conditions: means ± SD (n = 3)
T1 construct: purchased Sigma Chemical (Merck KGaA, Darmstadt, Germany)
T1 sequence (P18031 1-322 limits assumed): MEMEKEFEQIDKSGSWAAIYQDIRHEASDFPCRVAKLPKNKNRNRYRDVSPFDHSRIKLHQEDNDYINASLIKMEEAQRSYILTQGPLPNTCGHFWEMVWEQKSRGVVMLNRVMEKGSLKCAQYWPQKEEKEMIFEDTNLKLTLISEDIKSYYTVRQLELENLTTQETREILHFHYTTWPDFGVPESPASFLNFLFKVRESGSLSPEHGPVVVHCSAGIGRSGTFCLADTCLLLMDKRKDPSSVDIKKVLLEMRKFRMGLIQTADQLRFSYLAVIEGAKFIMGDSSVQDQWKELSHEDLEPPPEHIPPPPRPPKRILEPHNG
Description: IR spectra were measured on a Bruker FT-IR Tensor-27 infrared spectrophotometer with KBr disks. Optical rotations were recorded on a JASCO P-1020 polarimeter. UV spectra were obtained with a Shimadzu UV-2401PC spectrometer. 1D and 2D NMR spectra were performed on a Bruker DRX-600 spectrometer using TMS as an internal standard. The chemical shifts (δ) were expressed in ppm with reference to the solvent signals. HREIMS and HRESIMS analysis were obtained from Waters Xevo TQS and Agilent G6230 TOF mass spectrometers, respectively. […] Semi-preparative HPLC was performed on a Waters 1525 HPLC with a ZORBAX SB-C18 (9.4 × 250 mm) column. Silica gel (100–200 and 200–300 mesh, Qingdao Marine Chemical Co., Ltd., People’s Republic of China), and MCI gel (75–150 μm, Mitsubishi Chemical Corporation, Tokyo, Japan) were used for column chromatography. Fractions were monitored by TLC (GF 254, Qingdao Marine Chemical Co., Ltd.), and spots were visualized by heating silica gel plates immersed in 10% H2SO4 in ethanol. Methanol (HPLC grade) and acetonitrile (HPLC grade) was purchased from CINC High Purity Solvents Co., Ltd (Shanghai, China).
The α-glucosidase and PTB1B inhibitory activity were conducted according to the previous reports with slight modifications. […] While in the PTB1B inhibitory assay, after addition of phosphate-based detection reagent then incubation at 30 °C for 20 min, and absorbance was measured at 620 nm and suramin was used as positive control. The inhibition percentage was calculated as follows: inhibition rate (%) = (E – S)/E × 100% (E is the OD of the control and S is the OD of the sample) and IC50 (50% concentration of inhibition) was calculated by Reed and Muench method.

α-glucosidase = α-glucosidase (Saccharomyces cerevisiae, UniProt P53341); experiment: α-glucosidase inhibitory assay (PNPG, absorbance at 405 nm); assay type: biochemical; conditions: at a concentration of 50 μM; means ± SD (n = 3); read-out: α-Glucosidase Inhibition ratio (%)
Chain of α-glucosidase (P53341 whole entry): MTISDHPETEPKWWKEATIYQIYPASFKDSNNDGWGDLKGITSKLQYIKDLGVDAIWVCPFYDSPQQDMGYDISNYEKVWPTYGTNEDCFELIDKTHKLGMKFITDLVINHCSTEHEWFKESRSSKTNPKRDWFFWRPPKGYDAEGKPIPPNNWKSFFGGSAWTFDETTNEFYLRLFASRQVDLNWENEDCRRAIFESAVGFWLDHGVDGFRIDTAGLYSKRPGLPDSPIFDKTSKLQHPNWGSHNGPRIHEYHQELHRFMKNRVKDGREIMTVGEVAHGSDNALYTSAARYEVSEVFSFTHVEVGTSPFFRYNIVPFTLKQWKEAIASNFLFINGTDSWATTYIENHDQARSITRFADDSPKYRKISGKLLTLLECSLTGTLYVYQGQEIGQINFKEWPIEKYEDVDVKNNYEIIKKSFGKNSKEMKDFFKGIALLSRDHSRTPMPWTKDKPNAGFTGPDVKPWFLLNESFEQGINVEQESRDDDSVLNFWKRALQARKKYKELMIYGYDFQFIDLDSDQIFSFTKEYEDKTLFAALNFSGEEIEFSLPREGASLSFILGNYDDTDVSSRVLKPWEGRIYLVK
Description: The α-glucosidase and PTB1B inhibitory activity were conducted according to the previous reports with slight modifications [49, 50]. […] The inhibition percentage was calculated as follows: inhibition rate (%) = (E – S)/E × 100% (E is the OD of the control and S is the OD of the sample) and IC50 (50% concentration of inhibition) was calculated by Reed and Muench method.

[1] = test concentration of the compounds not given

SMILES	PTP1B inhibition ratio (%) (PTP1B; [1])	PTP1B inhibition ratio (%) (PTP1B; at a concentration of 20 μM, positive control)	inhibition at 50 µM (α-glucosidase) [%]
O=C1C/C=C/CCc2ccc(O)c(c2)-c2cc(ccc2O)C1 [Compound 4, Otteacumiene D]	10.37 ± 2.17	–	–
Cc1ccc(C(=O)Nc2ccc(S(=O)(=O)O)c3cc(S(=O)(=O)O)cc(S(=O)(=O)O)c23)cc1NC(=O)c1cccc(NC(=O)Nc2cccc(C(=O)Nc3cc(C(=O)Nc4ccc(S(=O)(=O)O)c5cc(S(=O)(=O)O)cc(S(=O)(=O)O)c45)ccc3C)c2)c1 [Suramin, suramin, reference compound]	–	84.11 ± 0.42^d %	–
Oc1ccc2cc1Oc1ccc(cc1)CC/C=C\C=C\C2 [Compound 8, tedarenes A]	-3.47 ± 1.21	–	–
Oc1ccc2cc1Oc1ccc(cc1)C[C@H](O)/C=C\C=C\C2 [Compound 2, Otteacumiene B]	11.32 ± 2.03	–	43.98 ± 0.43
Oc1ccc2cc1Oc1ccc(cc1)CC=CC=CC(O)C2 (centres unmarked) [Compound 1, Otteacumiene A]	-9.47 ± 2.28	–	38.3 ± 1.79

Next, values leading:

PTP1B inhibition ratio (%) (PTP1B; [1])	PTP1B inhibition ratio (%) (PTP1B; at a concentration of 20 μM, positive control)	inhibition at 50 µM (α-glucosidase) [%]	SMILES
19.07 ± 0.85	–	–	COC1c2ccc(O)c(c2)Oc2ccc(cc2)CCC=CCC1O (centres unmarked) [Compound 3, Otteacumiene C]
-12.94 ± 2.98	–	–	COc1ccc(CC/C=C\C=C\Cc2ccc(O)cc2)cc1 [Compound 6, Otteacumiene F]
-0.28 ± 1.89	–	–	Oc1ccc(C/C=C/C=C\CCc2ccc(O)cc2)cc1 [Compound 5, Otteacumiene E]
-26.62 ± 2.28	–	–	COc1ccc(/C=C/C/C=C/CCc2ccc(OC)cc2)cc1 [Compound 7, (1E,4E)-1,7-di(4-methoxyphenyl)-1,4-heptadiene]
